This is an account of results in patent US6451861B1, “Reduction of gastro-intestinal bacterial load” (priority 1999, dated 2002).

Assay [1] relates to E. coli strains AW574 or AW405. Put plainly: Lysis of E. coli by terpenes (galactosidase activity, ONPG, 420 nm).
Excerpt: Lysis of the cell membrane was monitored by the determination of galactosidase activity. […] This enzyme is inducible in the presence of isopropyl-1-thiogalactosidase (IPTG) and assayed colorimetricaly with substrate o-nitro-phenyl-B-D-galactoside (ONPG). ONPG is cleaved to release o-nitrophenol with peak absorvance at 420 nm. Since intact E. coli is impermeable to both ONPG and the enzyme, the cells have to be lysed prior to enzymatic assay. Therefore the ability of terpenes to lyse E. coli can be measured with this enzymatic assay and compared to known lysing agents. The procedure used was as follows: E. coli strains AW574 or AW405 were cultured overnight in 10 ml tryptone broth with 1 nM IPTG at 35° C. Cells were allowed to growth after an absorbance equal to 0.9 was reached. Cells were harvested, washed with phosphate buffer and resuspended to an absorbance equal to 0.5. One tenth of a ml of the bacteria culture was added to 0.9 ml of buffer, warmed to 30° C. and then 80 ul of terpenes (85% terpenes and 15% polysorbate-80), 80 ul water (background) or 40 ul chloroform plus 40 ul 1% SDS in water (positive control) were added. After the addition of the lysing agents the tubes were mixed for 10 seconds and 0.2 ml of ONPG (4 mg/ml water) was added, then incubated for 5 minutes. The enzyme activity was stopped with 0.5 ml of 1 M sodium carbonate. After being centrifuged for 3 minutes at 1,500×g, supernatant was transferred to cuvettes and read at 420 nm. The relative degree of lysis caused by terpenes was calculated as follows:
100×(OD terpenes−OD water)/(OD chloroform−OD water)
The subject of a further assay is E. coli. The following applies: cited from earlier work.

With `CC(C)=CCC/C(C)=C/CO` [Geraniol], the Relative lysis % in assay [1] (Geraniol 3.63 uM, relative to SDS + chloroform = 100%) was 2.4%; in assay [1] (Geraniol 363 uM, relative to SDS + chloroform = 100%) it was 34%; in assay [1] (Geraniol 3,630 uM, relative to SDS + chloroform = 100%), 98%; in assay [1] (Geraniol 36,300 uM, relative to SDS + chloroform = 100%) it was 96%.
Consider Polysorbate-80 [reference compound], for which the Relative lysis % in assay [1] (80 ul Polysorbate-80 alone) was 3.2%.
For the compound `CC(C)=CCCC(C)=CC=O` [citral], in the assay on E. coli, the “citral concentration in media that reduced the concentration of E. coli” value is reported as “more than 0.01%”. Also, the “citral concentration with bactericidal effect” value with E. coli (in media) is 0.08%.
